{
  "source": "patent US10520509B2",
  "about": "(Washington State University, priority 2016, dated 2019)",
  "key": {"[1]": {"test_system": "HeLa cells", "test": "Fluorescence imaging of H2S and H2Sn with DDP probe in cells", "type": "cell-based", "conditions": "probe 20 μm 30 min", "description": "(§1) In another embodiment the DDP probes has been designed to visuals exogenous sulfur species in a living system. […] Additionally, the selectivity of the probes can be seen in FIG. 10. […] The probe (20 μm) was applied to the cells for 30 minutes, after which the extracellular probe was washed off and only a weak fluorescence was observed.\nThe cells were grown on glass-bottom culture dishes (Corning Inc.) in DMEM supplemented with 10% (v/v) FBS, penicillin (100 U/mL) and streptomycin (100 μg/mL) at 37° C. under a humidified atmosphere containing 5% CO2. Before use, the adherent cells were washed one time with FBS-free DMEM. […] After removal of excess probe and washed with PBS (pH 7.4), the cells were incubated with 30 μM Na2S2 or 30 μM Na2S4 at room temperature for 20 min in PBS buffer (pH 7.4, containing 100 μM CTAB). Cell imaging was carried out after removal of the culture solution. For images of CSE-overexpressed COS7 cells."}, "[2]": {"test_system": "HeLa cells", "test": "Cell viability assay (CCK-8) of DDP probe", "type": "cell-based", "conditions": "10-100 μM, 6 h", "description": "as §1\nHeLa cells were cultured in DMEM high glucose medium supplemented with 10% fetal bovine serum (FBS) at 37° C. under an atmosphere of 5% CO2 and 95% air. The cells were then inoculated in 96-well plates and cultured overnight. DDP-1 in FBS-free medium were administered and cultured for 6 h. The cell viability was measured by cell counter kit (CCK)-8. The absorbance at 450 nm was measured with a microplate reader. Optical density (OD) of the 9 wells in the indicated groups was used to calculate percentage of cell viability according to the formula below: Percentage of cell viability=OD treatment group/OD control group×100% Cell Culture and Fluorescence Imaging"}},
  "data": [
    {"smiles": "[N-]=[N+]=Nc1ccc2c(CC(=O)N3CCN(c4ccc5c(c4)Oc4cc(OC(=O)c6ccccc6SC(=O)c6ccccc6)ccc4C54OC(=O)c5ccccc54)CC3)cc(=O)oc2c1", "note": "(stereo not drawn) [DDP-1]", "values": [
      {"measurement": "fluorescence in cells after Na2S treatment", "setting": "[1]; Na2S 100 μm, blue and green channel", "result": "apparent fluorescence enhancement"},
      {"measurement": "fluorescence in cells after Na2S2 or in situ generated H2Sn", "setting": "[1]; blue vs green channel", "result": "blue channel decreased with a coinstantaneous increase in the green channel"},
      {"measurement": "cytotoxicity (cell viability)", "setting": "[2]", "result": "low cytotoxicity"}
    ]}
  ]
}
